Test results reported in PubChem BioAssay (NCI).
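Exposure lasted 48 hours, with cells grown in 96-well plates and compounds tested at five concentrations. At the GI50, growth is halved. TGI: total growth inhibition.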

Legend:
Test in all cases: NCI tumour cell line growth inhibition, 48 h
SK-MEL-2 melanoma = test system: SK-MEL-2 melanoma
SF-295 CNS = test system: SF-295 CNS
NCI/ADR-RES ovarian = test system: NCI/ADR-RES ovarian
OVCAR-8 ovarian = test system: OVCAR-8 ovarian
RXF 393 renal = test system: RXF 393 renal
SF-268 CNS = test system: SF-268 CNS
HOP-92 NSCLC = test system: HOP-92 NSCLC
UACC-257 melanoma = test system: UACC-257 melanoma
SK-OV-3 ovarian = test system: SK-OV-3 ovarian
SK-MEL-28 melanoma = test system: SK-MEL-28 melanoma

Compound	TGI (SK-MEL-2 melanoma) [µM]	TGI (SF-295 CNS) [µM]	TGI (NCI/ADR-RES ovarian) [µM]	TGI (OVCAR-8 ovarian) [µM]	TGI (RXF 393 renal) [µM]	TGI (SF-268 CNS) [µM]	TGI (HOP-92 NSCLC) [µM]	TGI (UACC-257 melanoma) [µM]	TGI (SK-OV-3 ovarian) [µM]	TGI (SK-MEL-28 melanoma) [µM]	GI50 (SK-MEL-2 melanoma) [µM]	GI50 (SF-295 CNS) [µM]	GI50 (NCI/ADR-RES ovarian) [µM]	GI50 (OVCAR-8 ovarian) [µM]	GI50 (RXF 393 renal) [µM]	GI50 (SF-268 CNS) [µM]	GI50 (HOP-92 NSCLC) [µM]	GI50 (UACC-257 melanoma) [µM]	GI50 (SK-OV-3 ovarian) [µM]	GI50 (SK-MEL-28 melanoma) [µM]
O=c1cccc(Cl)[nH]1	> 100	> 100	> 100	> 100	> 100	> 100	> 100	> 100	> 100	> 100	–	–	–	–	–	–	–	–	–	–
COc1ccc2c(c1OC)O/C(=C\c1ncc([N+](=O)[O-])n1C)C2=O	1.72	21.7	7.87	3.66	2.27	6.39	4.86	2.67	9.1	3.43	0.681	3.13	1.72	0.639	0.774	1.36	1.45	0.788	2.71	0.623
COc1cc(/C=C2\SC(N3CCCCC3)=NC2=O)ccc1OCCCCCCOc1ccc(/C=C2\SC(N3CCCCC3)=NC2=O)cc1OC	93.9	47.5	28.2	31.1	16.9	17.6	8.95	47.6	17.4	43.9	21.8	13.7	9.11	4.95	4.94	4.2	2.47	17.4	4.91	15.7
COc1ccc(C(O)c2cc3c(N)c(C(=O)Nc4cccc(Br)c4C)sc3nc2C)cc1 (stereo not drawn)	> 33.3	6.14	2.99	> 23	2.22	> 27.8	18	> 33.3	> 33.3	> 33.3	1.17	0.133	0.179	0.225	0.0944	0.405	0.261	0.307	0.251	5.2
CNC(=O)OCc1nc(SC)n(C)c1COC(=O)NC	290	551	535	472	169	450	376	335	525	380	–	–	–	–	–	–	–	–	–	–
CCOc1ccc2cc(-c3nn(CC4CCNCC4)c4ncnc(N)c34)ccc2c1	29.8	29.5	29.8	–	17.1	28.2	24.9	31.1	39.3	30.2	15.8	14.8	15.6	–	3.96	12	4.96	16.8	17.3	16.1
CC1OC(OC2C(O)C(O)C(O)C(O)C2O)C(N)CC1N=C(N)C(=O)O (stereo not drawn)	> 100	> 100	> 100	> 100	> 100	> 100	> 100	> 100	> 100	> 100	–	–	–	–	–	–	–	–	–	–
